The text below walks through data of patent US9044428B2, “Neuritogenic peptides” (Neoloch ApS, priority 2005, dated 2015).

In assay [1] the test system is Cerebellar granule neuron (CGN) cultures. The experiment in a line: Stimulation of neurite outgrowth from cerebellar granule neurons in vitro. The assay is classed as cell-based, rat. Particulars: 24 h treatment of CGN cultures. An excerpt: Cerebellar granule neuron (CGN) cultures were obtained from 3-4-day-old Wistar rats (Charles River, Sulzfeld, Germany, or Moellegaard, Denmark) as previously described by Schousboe et al. (1989). Briefly, the cerebella were dissected, cleared of meninges and blood vessels, chopped, and trypsinized. The neurons were washed in the presence of DNAse 1 and soybean trypsin inhibitor (Sigma), and cellular debris was pelleted by centrifugation; the cells resuspended and then plated on poly-L-lysine (PLL; Sigma)-coated or uncoated microtiter plates in Neurobasal medium supplemented with 4% (w/v) bovine serum albumin (BSA), 2% (v/v) B27, 1% (v/v) glutamax, 100 U/ml penicillin, 100 gi/ml streptomycin, 4.5 g D-glucose/L (Sigma) 0.25% (v/v) sodium pyruvate, and 2% (v/v) 1 M HEPES (Gibco BRL).

The next assay concerns Primary cultures of CGN. The experiment in a line: Survival of CGN induced to undergo apoptosis (low KCl) in vitro. The class given is cell-based, rat. The conditions noted are these: apoptosis induced by reducing KCl to 5 mM, two days. The protocol:
Primary cultures of CGN were plated at a density of 100 000 cells/cm^2 on poly-L-lysine coated 8-well permanox slides in Neurobasal-A medium (Gibco BRL) supplemented with 2% (v/v) B27, 0.5% (v/v) glutamax, 100 units/mL penicillin, 100 μg/mL streptomycin and KCl, making the final concentration of KCl in the medium 40 mm, Twenty-four hours after plating, Ara-C (Sigma-Aldrich) was added to a final concentration of 10 μm to avoid proliferation of glial cells, after which the neurons were allowed to differentiate for a further 6 days at 37° C. Apoptotic cell death was induced by washing twice and changing the medium to Basal Medium Eagle (BME; Gibco BRL) supplemented with 1% (v/v) glutamine, 100 U/mL, penicillin and 100 μg/mL streptomycin, 3.5 g d-glucose/L and 1% (v/v) sodium pyruvate (Gibco BRL) together with various concentrations of peptide. Thereby the concentration of potassium in the cultures was reduced to 5 mm KCl (D'Mello et al. 1993). Two days after induction of apoptosis, the cells were fixed with 4% (v/v) formaldehyde and stained with Hoechst 33258 as described for the survival assay employing hippocampal neurons.

Assay [2] concerns human erythroleukemia cells TF-1. Kind of assay: Proliferation of TF-1 cells (BrdU incorporation ELISA). The assay is classed as cell-based. The protocol:
Evaluation of the effect of four EPO-derived peptides on cell proliferation was performed using a TF-1 cell line. The TF-1 cell line was established from sample from patient with severe pancytopenia (human erythroleukemia). The growth of these cells is dependent of the presence of the granulocyte-macrophage colony-stimulating factor (GM-SCF). The TF-1 cells were grown in Dulbecco's Modified Eagle Medium (DMEM) supplemented with 10% (v/v) heat inactivated foetal calf serum (FCS), 2 mM GlutaMAX, penicillin (100 U/ml) and streptomycin (100 μg/ml), 10 mM HEPES, 1 mM sodium pyruvate, 1% fungizone. The growth medium was supplemented with 2 ng/ml GM-CSF. Cell proliferation was determined using a Biotrak ELISA system, version 2 (Amersham Biosciences, UK). The procedure is based on measurement of the levels of 5-bromo-2′-deoxyuridine (BrdU) incorporation during DNA synthesis in proliferating cells. Briefly, passaged cells were washed once with starving medium (culturing medium without GM-CSF) then plated in 96-well Nuclon culture microplates (Nuno, Denmark) at a density of 5000 cells/well and grown in starving medium containing 0.008, 0.04, 0.2, 1.0, 5.0, 25 and 50 μg/ml of the tested compounds. As a positive control the human recombinant erythropoietin (EPO) (Calbiochem, Denmark) was used in a concentration of 2.0 ng/ml. TF-1 cells were allowed to grow in the presence of peptides for 24 h and than to all wells (except negative controls) BrdU was added to a final concentration of 10 μM and cultures were further incubated for 24 h, fixed and processed according to the procedure recommended by manufacturer, […]
A general note: Incorporation of labelled thymidine or its analogues reports DNA synthesis.

For assay [3], the system named is rat brain after TBI. Kind of assay: Astrocytosis after traumatic brain injury (GFAP IHC). The assay is classed as in vivo. The conditions noted are these: s.c., 3 days after lesion. The protocol: (§1) Male rats (wistar) (tree groups, 5 rats/group) were injected s.c with different Epo peptides (each group individually with Epo 2, Epo 3 or Epo 4) three times according to the scheme: • 1. the day before the lesion: a single injection of a peptide per animal (1 mg/100 g animal weight); • 2. the 1st day after the lesion: a single injection of a peptide per animal (1 mg/100 g animal weight): • 3. the 2nd day after the lesion: a single injection of a peptide per animal (1 mg/100 g animal weight); • 4. the 3rd day after the lesion: animals are sacrificed.
(§2) Control groups were a group (4 rats) injected with the vehicle (water) and a group (4 rats), injected with human recombinant EPO (hrEPO) in dose 50 μg/100 g rat according to the above scheme.
A traumatic brain injury (TBI) was induced by applying dry ice (−78 C) to the extracranial surface of the skull for 60 sec, which induces a focal injury in the right fronto-parietal cortex. […]
For immunohistochemistry the sections of the brains were incubated overnight with polyclonal rabbit anti-cow GFAP, GAP-43, 8-oxoguanine, or PSA-NCAM antibodies 1:250 (Dakopatts). The primary antibodies were detected in the sections with biotinylated secondary antibodies followed by incubation with streptavidin-biotin-peroxidase (30 min). […]

The test system of assay [4] is rat brain after TBI. The experiment in a line: Oxidative DNA damage after traumatic brain injury (8-oxoguanine immunostaining). The class given is in vivo. Particulars: s.c., 3 days after lesion. The procedure: as §1, §2
(§3) A traumatic brain injury (TBI) was induced by applying dry ice (−78 C) to the extracranial surface of the skull for 60 sec, which induces a focal injury in the right fronto-parietal cortex. Three days after the lesion (3 dpl) rats were deeply anesthetized with Brietal (10 mg/100 gr) and fixed by transcardial perfusion with 0.9% NaCl and 0.3% heparin, followed by Zamboni's fixative. The brains were removed, dehydrated according to the standard protocol, embedded in paraffin, and cut in 6-μm-thick frontal sections for further evaluation by immunohistochemistry and TUNEL.
(§4) For immunohistochemistry the sections of the brains were incubated overnight with polyclonal rabbit anti-cow GFAP, GAP-43, 8-oxoguanine, or PSA-NCAM antibodies 1:250 (Dakopatts). The primary antibodies were detected in the sections with biotinylated secondary antibodies followed by incubation with streptavidin-biotin-peroxidase (30 min). Afterwards, the sections were incubated with biotinylated tyramide and streptavidin-peroxidase complex (NEN, Life Science Products, USA, code NEL700A) prepared following the manufacturer recommendations, and visualized with 0.015% H2O2 in DAB/TBS for 10 min.

Assay [5] deals with rat brain after TBI. Kind of assay: Neuroplasticity and neurite outgrowth in vivo after TBI (PSA-NCAM and GAP-43 immunostaining). The procedure: as §1, §2, §3, §4
Assay [6] is described as follows: Hematocrit in rats after the brain lesion. Particulars: rat after brain lesion, peptide 1 mg/100 g s.c., p>0.02. The class given is in vivo. The procedure:
as §1, §2

Assay [7] relates to rat brain after TBI. Kind of assay: Programmed cell death after traumatic brain injury (TUNEL). The class given is in vivo. The conditions noted are these: s.c., 3 days after lesion. The protocol:
as §1, §2
A traumatic brain injury (TBI) was induced by applying dry ice (−78 C) to the extracranial surface of the skull for 60 sec, which induces a focal injury in the right fronto-parietal cortex. Three days after the lesion (3 dpl) rats were deeply anesthetized with Brietal (10 mg/100 gr) and fixed by transcardial perfusion with 0.9% NaCl and 0.3% heparin, followed by Zamboni's fixative. The brains were removed, dehydrated according to the standard protocol, embedded in paraffin, and cut in 6-μm-thick frontal sections for further evaluation by immunohistochemistry and TUNEL. […]

In the case of “NENITVPDTKVNFYAWKR (Derived from human erythropoietin, Swiss Prot P01588) [Epo2, peptide fragment derived from human erythropoietin]”, the “neurite outgrowth from CGN (neuritogenic activity)” value (shortened to “neurite outgrowth from CGN”) is “capable of stimulating neurite outgrowth” in assay [1] and “strongly induce neurite outgrowth” in assay [1] (listed as SEQ ID NO: 2). Further, in the assay on Primary cultures of CGN, the “protection of CGN induced to undergo apoptosis (neuronal survival)” value is “strongest neuroprotective effect”. Moreover, in assay [2] (concentrations of 25 and 50 μg/ml), the “proliferation of TF-1 cells” value was “stimulates proliferation of TF-1 cells”. Besides, the “astrocytosis (reactive astrogliosis) by GFAP IHC” value in the assay on rat brain after TBI [3] is “mast pronounced increase in reactive astrogliosis”. Moreover, the “8-oxoguanine positive cells (oxidative DNA damage)” value in the assay on rat brain after TBI [4] is recorded as “lowest number of the 8-oxoguanine positive cells”. Besides, in the assay with rat brain after TBI [5] (cortical lesion area, choroid plexus, hippocampus, hypothalamus), the “neurite outgrowth in vivo (GAP-43 immunostaining)” value is reported as “stimulates neurite outgrowth”. Also, the “effect on the hematocrit vs control” value in assay [6] is listed as “no statistically significant effect”; in assay [6] (listed as Epo 2) it was “no significant effect”.

In the case of “DSRVLERYLLEAKE (Derived from human erythropoietin, Swiss Prot P01588) [Epo1, peptide fragment derived from human erythropoietin]”, the “neurite outgrowth from CGN” value in assay [1] (listed as SEQ ID NO: 1) is on record as “do net have any neuritogenic activity”. The “proliferation of TF-1 cells” value in assay [2] (concentration of 0.2 μg/ml) was “probably had a stimulatory effect”; in assay [2] (concentration of 50 μg/ml), “stimulates proliferation of TF-1 cells”.

As for “RVYSNFLRGKLKLYTGEA (Derived from human erythropoietin, Swiss Prot P01588) [Epo4, peptide fragment derived from human erythropoietin]”, the figures for the “neurite outgrowth from CGN” value in assay [1] and in assay [1] (listed as SEQ ID NO: 4) were “capable of stimulating neurite outgrowth” and “strongly induce neurite outgrowth”, respectively. The “protection of CGN induced to undergo apoptosis (neuronal survival)” value with Primary cultures of CGN was “strongest neuroprotective effect”. Moreover, the “proliferation of TF-1 cells” value in assay [2] (concentration of 50 μg/ml) is “stimulate proliferation of TF-1 cells”. Also, the “stimulation of haemopoietic cell proliferation (general conclusion)” value in assay [2] (no concentration stated) was “most potent among them”. For the same sequence, the “astrocytosis (reactive astrogliosis) by GFAP IHC” value with rat brain after TBI [3] was “least effect”. Moreover, the “TUNEL-positive apoptotic cells around the necrotic cavity” value with rat brain after TBI [7] is “lowest level of apoptosis”. The “8-oxoguanine positive cells (oxidative DNA damage)” value in the assay with rat brain after TBI [4] is listed as “significantly reduced oxidative DNA damage”. Besides, in the assay with rat brain after TBI [5] (area adjusted to the lesion and subventricular zone), the “level of PSA-NCAM staining” value was “significantly increases the level of PSA-NCAM staining”. In assay [6], the “effect on the hematocrit vs control” value is on record as “no statistically significant effect”.
